The target of the test is T1, AgORco+AgOR10 (Anopheles gambiae, UniProt Q7QCC7).
T1 construct: expressed in transfected cells
T1 sequence (Q7QCC7 1-478): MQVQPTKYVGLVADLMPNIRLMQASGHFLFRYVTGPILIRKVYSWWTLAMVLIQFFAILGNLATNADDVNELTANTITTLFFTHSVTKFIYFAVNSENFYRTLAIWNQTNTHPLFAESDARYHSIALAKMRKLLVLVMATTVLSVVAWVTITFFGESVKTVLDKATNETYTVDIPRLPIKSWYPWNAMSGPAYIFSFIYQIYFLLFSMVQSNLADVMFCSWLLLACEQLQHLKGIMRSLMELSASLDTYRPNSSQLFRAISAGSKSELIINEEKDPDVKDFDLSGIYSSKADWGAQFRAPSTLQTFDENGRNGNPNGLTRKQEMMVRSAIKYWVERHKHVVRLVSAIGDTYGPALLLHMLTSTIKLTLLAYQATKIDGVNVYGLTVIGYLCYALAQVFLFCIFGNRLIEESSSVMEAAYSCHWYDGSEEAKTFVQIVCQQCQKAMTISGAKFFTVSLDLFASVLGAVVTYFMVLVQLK
The test is described as follows: Fluo-4 Ca2+ imaging, HEK293 cells expressing Orco+AgOR10. The class given is cell-based. The note with it: AgORco+AgOR10 cells; not seen in control cells. Summed up: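 Stable Flp-In T-REx 293 lines co-expressing Orco and OR, induced overnight with 0.3 u-g/ul tetracycline, loaded with 1.8 uM Fluo-4 AM plus 2.5 mM probenecid for 45 min at 37 °C. Ca2+ mobilization read after 20 s baseline and compound addition; Max/Min ratios normalized to the maximum responder.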

Each structure is given as a SMILES string.

As to `CCc1ccc(NC(=O)CSc2nnc(-c3cccnc3)n2CC)cc1` [VUAA1, 2-((4-ethyl-5-(pyridin-3-yl)-4H-1,2,4-triazol-3-yl)thio)-N-(4-ethylphenyl)acetamide], the “response in plate-based calcium imaging” value is reported as “concentration-dependent responses”.

For the origin of these results see patent US11484032B2, “Compositions for inhibition of insect sensing” (Vanderbilt University, priority 2011, dated 2022).
